Laboratory results from US20240018146A1, “COMPOSITIONS AND METHODS OF USING THE SAME FOR TREATMENT OF NEURODEGENERATIVE AND MITOCHONDRIAL DISEASE” (MITOKININ, INC., priority 2020, published 2024).
Where two headings read alike, the source gives them in different places.

Assays:
Type in all cases: cell-based
HeLa MKYP cells [1] = test: Human mitophagy assay (HeLa mKeima assay, FACS)
Outline: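 HeLa cells carrying the pH-sensitive mtKeima tag incubated 16 h with compound at several concentrations, then 1 uM FCCP/oligomycin for 6 h. FACS detects mitochondria in lysosomes through the Keima emission shift, quantified as percentage of cells in mitophagy.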

HeLa MKYP cells [2] = test: Cell death measured by DAPI staining, with 1 μM FCCP/oligomycin or no toxin (no FO); details: for Max cell death at 25 μM compound, 1 uM FO (%) / Cell death at 25 μM (no FO) (%): 25 μM compound
Outline: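 HeLa MKYP cells were treated with compounds alongside 1 μM FCCP/oligomycin or no toxin for 6 or 6.5 h. Cell death was scored by DAPI staining, with H2O2 treatment as the death control.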

[3] = Mitotoxicity / Mitotox safety margin (therapeutic window)
[4] = read-out: Mitophagy induction EC50
[5] = Homo sapiens, HeLa, read-out: Mitophagy induction EC50
[6] = Homo sapiens, HeLa, HeLa mKeima assay, read-out: Mitophagy EC50 (HeLa mKeima assay)

Structure (SMILES)	EC50 (HeLa MKYP cells [1]; [4])	Highest safe dose (cytotoxicity; no FO; safe means DAPI+ <20%) (HeLa MKYP cells [2])	Max % death with 1 μM FO (HeLa MKYP cells [2])	Mito-Safety Index (highest safe dose/EC50) [3]	Highest safe dose (μM) (mitotox or cytotox) [3]	EC50 (HeLa MKYP cells [1]; [5])	EC50 (HeLa MKYP cells [1]; [6])	Max cell death at 25 μM compound, 1 uM FO (%) (HeLa MKYP cells [2])	Cell death at 25 μM (no FO) (%) (HeLa MKYP cells [2])	Mitotox safety margin (Therapeutic window) [3]
COC[C@@H]1CCN([C@H]2COc3ccccc3[C@@H]2Nc2ncnc3[nH]c(C(F)(F)F)cc23)C1 (single isomer, unassigned) [EP-0041071]	70 nM	25.0 µM	12.6%	47.29	3.3 µM	–	–	–	–	–
COC[C@H]1CCN([C@H]2COc3ccccc3[C@@H]2Nc2ncnc3[nH]c(C(F)(F)F)cc23)C1 (single isomer, unassigned) [EP-0041175]	150 nM	25.0 µM	8.8%	30.68	4.5 µM	–	–	–	–	–
[2H]C([2H])([2H])OC1CN([C@H]2COc3ccccc3[C@@H]2Nc2ncnc3[nH]c(C(F)(F)F)cc23)C1 (single isomer, unassigned) [EP-0041326]	350 nM	25.0 µM	7.5%	56.49	19.8 µM	–	–	–	–	–
COC[C@@H]1CCN(C2COc3ccccc3C2Nc2ncnc3[nH]c(C4CC4)cc23)C1 (single isomer, unassigned) [EP-0041514]	30 nM	25.0 µM	8.1%	38.63	1.4 µM	–	–	–	–	–
FC(F)OC1CN([C@H]2COc3ccccc3[C@@H]2Nc2ncnc3[nH]c(C(F)(F)F)cc23)C1 (single isomer, unassigned) [EP-0041541]	–	25.0 µM	19.1%	28.61	8.3 µM	290 nM	–	–	–	–
c1ccc2c(c1)CC[C@H](N1C[C@H]3COC[C@H]3C1)[C@H]2Nc1ncnc2[nH]c(C3CC3)cc12 [EP-0039713]	–	25.0 µM	26.3%	9.46	0.9 µM	100 nM	100 nM	19.2%	12.9%	+ (+ = <10)
CN(c1ncnc2[nH]c(C(F)(F)F)cc12)C1c2ccccc2CCC1N1C[C@H]2COC[C@H]2C1 (stereo partly drawn) [EP-0039742]	–	25.0 µM	20.4%	7.45	25.0 µM	3360 nM	3330 nM	13.8%	2.45%	–
CN(c1ncnc2[nH]c(C3CC3)cc12)C1c2ccccc2CCC1N1C[C@H]2COC[C@H]2C1 (stereo partly drawn) [EP-0039743]	–	25.0 µM	28.2%	5.99	25.0 µM	4170 nM	3880 nM	33.7%	11.6%	–
c1ccc2c(c1)OC[C@H](N1CCOCC1)[C@H]2Nc1ncnc2[nH]c(C3CC3)cc12 [EP-0040080]	–	25.0 µM	13.9%	51.66	25.0 µM	480 nM	590 nM	16%	4.73%	++ (++ = 10 < x < 20)
N#Cc1ccc2c(c1)CC[C@H](N1C[C@H]3COC[C@H]3C1)[C@H]2Nc1ncnc2[nH]c(C(F)(F)F)cc12 [EP-0040120]	–	8.3 µM	93.5%	–	8.3 µM	2300 nM	–	–	–	–
